# Measured values reported in patent US12378193B2, “Anti-arrhythmicity agents” (The Regents of the University of California, priority 2014, dated 2025).
# What was measured:
# [1] = system: Zebrafish tremblor mutant; test: Zebrafish screening: soaking; assay type: in vivo; conditions: for Soaking: % Rescued: Table 1, tremblor mutants, 20 μM; for Rescue percent: Table 2, tremblor mutant soaked in 20 μM test compounds
# Experimental: (§1) We screened our above mention library by using tremblor mutants Zebrafish embryos. […] Compounds were screened for their ability to suppress cardiac fibrillation and/or restore rhythmic synchronized contraction. Briefly, we treated the embryo by soaking in 20 μM solution or injecting compounds after 24 hours fertilization and observed the phenotype after 48 hours. Further, we determined the structure-activity relationship (SAR) between the active compound's structures and the ability to suppress cardiac fibrillation and/or restore rhythmic synchronized contraction.
# Zebrafish tremblor mutant eggs were collected after fertilization, and arrayed in 24-well plates (20 twenty embryos/well) in 500 μL buffer. After 24 hour fertilization in 29° C., 20 μM testing compound was added and using E3 buffer as background control. After 48 hour fertilization in 29° C., phenotypic changes were observed using a high magnification dissecting microscope.
# [2] = system: Zebrafish embryo injected with morpholino to NCX1h; test: Zebrafish screening: injection with morpholino to NCX1h; assay type: in vivo; conditions: for Injection with Morpholino: % Rescued: Table 1; for Rescue percent: Table 3, morpholino mutants
# Experimental: as §1
# (§2) Zebrafish eggs were collected at 1 cell stages. 1 nL of compound in Daneu's buffer and 1 nL of morpholino (1 mM) to NCX1h was injected into the embryo. After 24 hours the embryo was arrayed in 24-well plates (20 twenty embryos/well) in 500 μL buffer. After 48 hour fertilization in 29° C., phenotypic changes were observed using a high magnification dissecting microscope.
# [3] = system: Zebrafish tremblor mutant; test: Zebrafish screening: injection into tremblor mutants; assay type: in vivo; conditions: for Injection into tremblor Mutants: % Rescued: Table 1; for Average rescue ratio: Table 4, over all screens
# Experimental: as §1
# as §2, with “Zebrafish tremblor mutant” for “Zebrafish”, “were” for “and 1 nL of morpholino (1 mM) to NCX1h was”
# [4] = system: VDAC2; test: Affinity bead pull down from zebrafish embryo lysate with mass spectrometry; assay type: binding; conditions: zebrafish embryonic lysate, affinity agarose beads
# Experimental: For pull down assays mono-N-Boc protected 2,2′-(ethylenedioxy)bis(ethylamine) was attached to the carboxylic ester of efsevin and its derivatives through the amide bond. After removal of the Boc group using TFA, the primary amine was coupled to the carboxylic acid of Affi-Gel 10 Gel (Biorad). Two-day-old zebrafish embryos were deyolked by centrifugation before being lysed with Rubinfeld's lysis buffer (Rubinfeld et al., 1993, Science 262, 1731-1734). The lysate was precleaned by incubation with Affi-Gel 10 Gel to eliminate non-specific binding. Precleaned lysate was incubated with affinity beads overnight. Proteins were eluted from the affinity beads and separated on SDS-PAGE. Protein bands of interest were excised. Gel plugs were dehydrated in acetonitrile (ACN) and dried completely in a Speedvac. Samples were reduced and alkylated with 10 mM dithiotreitol and 10 mM TCEP solution in 50 mM NH4HCO3 (30 min at 56° C.) and 100 mM iodoacetamide (45 min in dark), respectively. Gel plugs were washed with 50 mM NH4HCO3, dehydrated with ACN, and dried down in a Speedvac. Gel pieces were then swollen in digestion buffer containing 50 mM NH4HCO3, and 20.0 ng/μL of chymotrypsin (25° C., overnight). Peptides were extracted with 0.1% TFA in 50% ACN solution, dried down and resuspended in LC buffer A (0.1% formic acid, 2% ACN).
# Extracted peptides were analyzed by nano-flow LC/MS/MS on a Thermo Orbitrap with dedicated Eksigent nanopump using a reversed phase column (New Objective). The flow rate was 200 nL/min for separation: mobile phase A contained 0.1% formic acid, 2% ACN in water, and mobile phase B contained 0.1% formic acid, 20% water in ACN. The gradient used for analyses was linear from 5% B to 50% B over 60 min, then to 95% B over 15 min, and finally keeping constant 95% B for 10 min. Spectra were acquired in data-dependent mode with dynamic exclusion where the instrument selects the top six most abundant ions in the parent spectra for fragmentation. […]
# [5] = system: NCX1hMO injected embryos; test: Restoration of coordinated cardiac contractions in NCX1h morpholino embryos; assay type: in vivo, zebrafish; conditions: linker-attached compounds
# Experimental: (§3) VDAC2 mRNA and morpholino antisense oligos (5′-[…]-3′) (Genetools) (SEQ ID NO: 9) were injected into one-cell stage embryos collected from crosses of tre^tc318 heterozygotes. Cardiac performance was analyzed by visual inspection on 1 dpf. The tre mutant embryos were identified either by observing the fibrillation phenotype at 2-3 dpf or by genotyping as previously described (Langenbacher et al., 2005).
# (§4) Chemicals from a synthetic library (Castellano et al., 2007, J Am Chem Soc 129, 5843-5845; Choi et al., 2011, Development 138, 1173-1181; Cruz et al., 2011, Proc Natl Acad Sci USA 108, 6769-6774) and from Biomol International LP were screened for their ability to partially or completely restore persistent heartbeat in tre embryos. 12 embryos collected from crosses of tre^tc318 heterozygotes were raised in the presence of individual compounds at a concentration of 10 μM from 4 hpf (Choi et al., 2011). Cardiac function was analyzed by visual inspection at 1 and 2 dpf. The hearts of tre^tc318 embryos manifest a chaotic movement resembling cardiac fibrillation with intermittent contractions in rare occasion (Ebert et al., 2005; Langenbacher et al., 2005). Compounds that elicit persistent coordinated cardiac contractions were validated on large number of tre mutant embryos and NCX1h morphants (>500 embryos).
# [6] = system: zebrafish tremblor (tre) embryos; test: Restoration of coordinated cardiac contractions in tre embryos; assay type: in vivo; conditions: tremblor embryos
# Experimental: as §3, §4
# [7] = Defibrillator activity of efsevin enantiomers
# [8] = Table 4, injection into tremblor mutants
Structure (SMILES),Injection with Morpholino: % Rescued [2],Rescue percent [2],Injection into tremblor Mutants: % Rescued [3],"Screen 1 Rescue percent [3, 8]",Average rescue ratio [3],also measured
CCOC(=O)C1=CCN(S(=O)(=O)c2ccc(C)cc2)C1c1ccc(C(=O)OCC)cc1 (racemic) [F7-I-A06],,,,,,Soaking: % Rescued [1]: 17/88%; Rescue percent [1]: 88%
CCOC(=O)C1=CCN(S(=O)(=O)c2ccc(C)cc2)C1c1cccc(C)c1 (racemic) [F7-I-B12],,,,,,Soaking: % Rescued [1]: 19/78%; Rescue percent [1]: 78%
CCOC(=O)C1=CCN(S(=O)(=O)c2ccccc2C)C1c1ccc(F)cc1 (racemic) [F7-I-G04],8/75%,75%,26/85%,78%,85%,"Screen 2 Rescue percent [3, 8]: 88%"
CCOC(=O)C1=CCN(S(=O)(=O)c2ccc(Cl)cc2)C1c1ccc(Br)cc1 (racemic) [F7-I-H05],8/88%,88%,43/74%,86%,74%,"Screen 2 Rescue percent [3, 8]: 69%; Screen 3 Rescue percent [3, 8]: 75%"
CCOC(=O)C1=CCN(S(=O)(=O)c2ccc(F)cc2)C1c1ccc(F)cc1 (racemic) [F7-II-A01],8/38%,38%,27/74%,74%,74%,
CCOC(=O)C1=CCN(S(=O)(=O)c2ccc(Cl)cc2)C1c1ccccc1 (racemic) [F7-II-A11],6/0%,0%,30/73%,73%,73%,
CCOC(=O)C1=CCN(S(=O)(=O)c2ccc(F)cc2)C1c1ccccc1 (racemic) [F7-II-B01],6/67%,67%,21/81%,91%,81%,"Screen 2 Rescue percent [3, 8]: 79%"
CCOC(=O)C1=CCN(S(=O)(=O)c2ccc(C)cc2)C1c1ccccc1 (racemic) [F7],,,,,,Rescue percent [1]: 72%
CCOC(=O)C1=CCN(S(=O)(=O)c2ccccc2F)C1c1ccc(Br)cc1 (racemic) [Formula Im],8/88%,,,,,
CCOC(=O)C1=CCN(S(C)(=O)=O)C1c1ccccc1 (racemic) [OK-C19],,,,,,pull down of the 32 kD band (VDAC2) [4]: not detected; restoration of rhythmic contractions in NCX1hMO injected embryos [5]: unable to induce rhythmic contraction; restoration of rhythmic contractions in tremblor embryos [6]: failed to rescue the tremblor phenotype
CCOC(=O)C1=CCN(S(=O)(=O)c2cccc(F)c2)C1c1ccc(F)cc1 (racemic) [OK-C125],,,,,,pull down of the 32 kD band (VDAC2) [4]: pulled down; restoration of rhythmic contractions in NCX1hMO injected embryos [5]: retained their ability to restore rhythmic contractions; restoration of rhythmic contractions in tremblor embryos [6]: restored rhythmic contractions in the majority of tremblor embryos
CCOC(=O)C1=CCN(S(=O)(=O)c2ccc(C)cc2)[C@@H]1c1ccccc1 [(R)-Efsevin],,,,,,defibrillator activity of efsevin: active enantiomer [7]: Active Antipode
Cc1ccc(S(=O)(=O)N2CC=C(C(=O)O)C2c2ccccc2)cc1 (stereo not drawn) [F7 acid],,,,,,Rescue percent [1]: 21%
CCOC(=O)C1=CCN(S(=O)(=O)c2ccc(C)cc2)C1c1ccc(F)cc1 (stereo not drawn) [F7-I-B04],,,,,,Soaking: % Rescued [1]: 8/75%; Rescue percent [1]: 75%
CCOC(=O)C1=CCN(S(=O)(=O)c2ccc(Cl)cc2)C1c1ccc(Cl)cc1 (stereo not drawn) [F7-I-B07],,,,,,Soaking: % Rescued [1]: 18/80%; Rescue percent [1]: 80%
CCOC(=O)C1=CCN(S(=O)(=O)c2ccc(F)cc2)C1c1ccc(Cl)c(Cl)c1 (stereo not drawn) [F7-I-F05],14/50%,50%,10/80%,80%,80%,
CCOC(=O)C1=CCN(S(=O)(=O)c2ccc(F)cc2)C1c1cccc(C)c1 (stereo not drawn) [F7-I-F09],8/75%,75%,15/87%,87%,87%,
CCOC(=O)C1=CCN(S(=O)(=O)c2cccc(Cl)c2)C1c1cccc(Cl)c1 (stereo not drawn) [F7-I-F11],8/88%,88%,28/79%,80%,79%,"Screen 2 Rescue percent [3, 8]: 78%"
CCOC(=O)C1=CCN(S(=O)(=O)c2ccccc2Br)C1c1ccc(Cl)cc1 (stereo not drawn) [F7-I-G09],6/67%,67%,23/87%,78%,78%,
CCOC(=O)C1=CCN(S(=O)(=O)c2ccccc2F)C1c1ccc(Cl)cc1 (stereo not drawn) [F7-I-H01],8/63%,63%,12/83%,83%,83%,
CCOC(=O)C1=CCN(S(=O)(=O)c2cccc(F)c2)C1c1ccc(F)cc1 (stereo not drawn) [F7-II-B12],,,21/76%,76%,76%,
CCOC(=O)C1=CCN(S(=O)(=O)c2ccccc2F)C1c1ccc(F)cc1 (stereo not drawn) [Formula In],8/88%,,,,,
CCOC(=O)C1=CCN(S(=O)(=O)c2ccccc2F)C1c1ccc(C)cc1 (stereo not drawn) [Formula Io],8/75%,,,,,
